Data on 1 compound can be found in patent US9919066B2, “Electroporation of tissue products” (LifeCell Corporation, priority 2013, dated 2018).

The test system of series [1] is bacteria present on tissue samples. Briefly: Effect of pulse voltage on bacteria counts of porcine dermis electroporated in PAA. It counts as cell-based. The settings on record: 0.2% PAA; for bacteria count: 10 ms, triplicates. The protocol: (§1) To determine the impact of pulse voltage on bacteria present on tissue samples, 1 cm by 1 cm pieces of porcine dermis (1 mm thickness) were electroporated in 2 ml of 0.2% peracetic acid (PAA) at three different pulse voltages: 0V, 40V and 80V. The 0V samples were used as a control condition. Electroporation plates (1 cm by 2 cm conducting metal plates) were set 2 mm apart and a 1 mm thick piece of tissue was placed between them. Electrical pulses were delivered for 10 ms. All conditions were tested in triplicates.
Following electroporation each piece of tissue was removed and rinsed in a PAA neutralizing wash for 5 minutes and then placed in 10 ml of phosphate buffered saline (PBS). The purpose of the neutralizing wash was to prevent further bacterial kill from residual PAA following electroporation that could confound the results.
Stomaching was used to extract the bacteria from each piece of tissue and bacteria counts were performed following incubation of culture plates for 2 days at 37° C. Stomaching is a mechanical extraction method used to remove microorganisms from samples of foods, fabrics, swabs, or other soft materials such as human or animal tissue. […] The resulting compression and shearing forces elute deep-seated bacteria. Once the agitation process is completed, samples of the eluent are taken for microbial enumeration and subsequent identification.

Series [2] concerns bioburden (bacteria) on porcine dermis. The series can be described thus: Effect of pulse length on bioburden of porcine dermis electroporated in PAA. The series is classed as cell-based. The settings on record: 0.2% PAA. The protocol: […] 0 ms pulses were used as a control condition. All conditions were tested in triplicates.
Electroporation plates (1 cm by 2 cm conducting metal plates) were set 2 mm apart and a 1 mm thick piece of tissue was placed between them. Pulse voltage was set at 80V. Following electroporation each piece of tissue was removed and rinsed in a PAA neutralizing wash for 5 minutes and then placed in 10 ml of PBS.
Stomaching was used to extract the bacteria from each piece of tissue and bacteria counts were performed following incubation of culture plates for 2 days at 37° C. […] Minimal bacterial colony forming units (CFU) were detected on tissue samples following 15 ms pulse.

A short description of series [3]: H&E histological examination of porcine dermis after electroporation. The settings on record: 0.2% PAA. The protocol: FIG. 1A-C show hematoxylin and eosin (H&E) staining of 1 cm by 1 cm samples of porcine dermis after exposure for 15 milliseconds to one electrical pulse of 0V (FIG. 1A), 40V (FIG. 1B), or 80V (FIG. 1C), according to certain embodiments of the present disclosure.
as §1
The tissue samples exposed to 40V and 80V pulse voltages had 0 bacteria. […] Porcine dermis was also stained using hematoxylin and eosin (H&E).

Regarding `CC(=O)OO` [PAA, peracetic acid], the bacterial colonies entry in series [1] (0V (control condition, no pulse)) is “too numerous to count”. Besides, the bacteria count in series [1] (40V pulse) and in series [1] (80V pulse) was 0 each time. In addition, the “Viable Cell Count” value was 430 CFU in series [2] (80V, pulse length 1 ms, 100 pulses); 300 CFU in series [2] (80V, pulse length 5 ms, 1 pulse); 140 CFU in series [2] (80V, pulse length 10 ms, 1 pulse); 26000 CFU in series [2] (pulse length 0 ms, no pulses (control condition)). For the same compound, the “changes in the collagen structure (H&E histology)” value in series [3] (exposure to 40 volts) is “no detectable change”; in series [3] (exposure to 80 volts) it was “potential changes in the collagen structure”.
